According to PMC8832507 (Molecular cancer therapeutics, 2021):
Where a SMILES comes first, the peptide text is derived from it. [ ]: non-standard residue; d: D form. The star is where a group is joined. Dolaproine = CO[C@@H]([C@@H]1CCCN1)[C@@H](C)C(=O)O; Dil = CC[C@H](C)[C@H](NC)[C@@H](CC(=O)O)OC; X1 = C[C@@H](N*)[C@@H](O)c1ccccc1; NMeV = CN[C@H](C(=O)O)C(C)C

Tests used:
[1] = test system: tumor spheroids; experiment: Tumor spheroid pharmacodynamic marker; type: cell-based; conditions: for Bystander penetration in spheroids by pH3 PD signal (in words): 25 nM AF680-ADC or AF680-trastuzumab, 24-48 hours; for Bystander penetration in spheroids by γH2A.X PD signal (in words): 24-72 hours
[2] = test system: HCC1954 cells; experiment: Cytotoxicity; type: cell-based; conditions: for IC50: read-out: Free payload IC50
[3] = PAMPA permeability assay; conditions: free payload
[4] = test system: MDA-MB-468 cells; experiment: Cytotoxicity; type: cell-based; conditions: for IC50: read-out: Free payload IC50, MDA-MB-468 cells
[5] = test system: HCC1954 (Ag+) and MDA-MB-468 (Ag−) co-culture; experiment: Bystander co-culture assay; type: cell-based

CC[C@H](C)[C@@H]([C@@H](CC(=O)N1CCC[C@H]1[C@H](OC)[C@@H](C)C(=O)N[C@H](C)[C@@H](O)c1ccccc1)OC)N(C)C(=O)[C@@H](NC(=O)[C@@H](NC)C(C)C)C(C)C [MMAE] (H-[NMeV]V[Dil][Dolaproine]-X1)
Bystander penetration in spheroids by pH3 PD signal (in words) [1]: pH3 signal throughout the spheroid at 48 hours
Free payload IC50, fold more potent than either Ahx-maytansine or Lys-SMCC-DM1 [2]: over 100 fold
PAMPA permeability, fold higher than either Ahx-maytansine or Lys-SMCC-DM1 [3]: ~10 fold

calicheamicin D [CaliD]
Bystander penetration in spheroids by γH2A.X PD signal (in words) ([1]; 25 nM AF680-ADC): greatest bystander cell killing
PD response in spheroids with potency matched doses (in words) ([1]; T-CaliG 75nM, T-CaliD 1nM): more efficient at reaching cells in the spheroid center

Ahx-maytansine
Bystander penetration in spheroids by pH3 PD signal (in words) [1]: detectable but localized bystander cell death

CCc1c2c(nc3ccc(O)cc13)-c1cc3c(c(=O)n1C2)COC(=O)[C@]3(O)CC [SN-38]
Fold higher free payload sensitivity of MDA-MB-468 cells compared to HCC1954 [4]: 2–3 fold
IC50 [4]: ~0.6 nM
Bystander penetration in spheroids by γH2A.X PD signal (in words) ([1]; 25 nM AF680-ADC): not readily apparent
IC50 [2]: ~1.8 nM

calicheamicin G [CaliG]
Bystander penetration in spheroids by γH2A.X PD signal (in words) ([1]; 25 nM AF680-ADC): negligible

T-DM1
Distance from spheroid edge of directly targeted cells showing pH3 signal ([1]; 25 nM AF680-ADC): ~ 75 µm
Bystander penetration in spheroids by pH3 PD signal (in words) [1]: did not exhibit bystander killing even at 48 hours
Ag+ cell death in co-culture (in words) ([5]; 1 nM ADC, 6 days): complete Ag+ cell death
Ag− cell bystander toxicity in co-culture (in words) ([5]; 1 nM ADC, 6 days, varying % Ag+ cells): no Ag− toxicity even at a 90% Ag+ cell percentage

CC[C@@]1(O)C(=O)OCc2c1cc1n(c2=O)Cc2c-1nc1cc(F)c(C)c3c1c2[C@@H](NC(=O)CO)CC3 [DXd]
Fold higher free payload sensitivity of MDA-MB-468 cells compared to HCC1954 [4]: 2–3 fold
IC50 [4]: ~2.3 nM
IC50 [2]: ~6.2 nM
Ag− cell death in co-culture ([5]; any concentration higher than 250 pM): 100%

CC[C@@]1(O)C(=O)OCc2c1cc1n(c2=O)Cc2c-1nc1cc(F)c(C)c3c1c2[C@@H](N)CC3 [exatecan]
Bystander penetration in spheroids by γH2A.X PD signal (in words) ([1]; 25 nM AF680-ADC): greatest PD signal at the spheroid center
Bystander efficiency in modified co-culture (in words) ([5]; fixed number of Ag− cells, increasing number of Ag+ cells, fixed ADC concentration): more efficient
PAMPA permeability, fold higher than DXd [3]: ~ 2 fold
PAMPA permeability, fold higher than SN-38 [3]: ~ 5 fold
